In brackets after ≈: the same amount, converted by molar mass. Counter-ions that a name gives are not always drawn.
Columns and labels:
[1] = system: P. aeruginosa biofilms; test: Minimum inhibitory concentration, biofilm phase (XTT); assay type: cell-based, Pseudomonas aeruginosa PAO1; details: 24 h
[2] = system: P. aeruginosa; test: Minimum inhibitory concentration of tobramycin (dilution series, plating); assay type: cell-based; details: Pseudomonas aeruginosa
Method: Determination of minimum inhibitory concentration of tobramycin. […] Afterwards, tobramycin was serially diluted into 1 mL of DI H2O and added to the 1 mL aliquots of overnight bacterial culture to the final concentrations of tobramycin ranging from 25 to 250 μg/mL, with 25 μg/mL increments. For the control, 1 mL of sterile DI H2O was added to the aliquot of the culture. The cultures were then grown overnight on a rotary shaker at 37° C. and 150 rpm. The next day, 50 μL aliquots of the overnight cultures were diluted 1:2 with TSB, plated on the TS nutrient agar plates, and grown for 24 hours at 37° C. The next-day plates were checked for the presence of bacterial colonies. […] These findings introduce a starting point for inhibition of established biofilms. This is the MIC for tobramycin alone, without attachment to NPs.

[3] = system: P. aeruginosa biofilm; test: Biofilm-inhibition through mucin and alginate barriers (in vitro CF biofilm model, disks); assay type: cell-based, Pseudomonas aeruginosa; parameters: key to Sensitivity, Mucin barrier / Sensitivity, Alginate barrier / Sensitivity, Both barriers: S for sensitive; I for intermediate; R for resistant; details: tobramycin 2 mg/mL; for Sensitivity, Alginate barrier / Sensitivity, Both barriers / Sensitivity, Mucin barrier: NPs 50 mg/mL; for Biofilm inhibition (number), Alginate barrier / Biofilm inhibition (number), Both barriers / Biofilm inhibition (number), Mucin barrier: NPs alginate capped 50 mg/mL
Text: Disk diffusion method. The disk diffusion method is one of the most popular approaches to bacterial sensitivity testing due to its low cost and efficiency. The disk, impregnated with a candidate antibiotic drug or compound of interest, is placed on the inoculated agar; which contains a uniform layer of bacteria taken from liquid culture. The disks are commercially available, containing the proper concentrations of antibiotic drugs based on […]. As a low-cost alternative, disks may be prepared using filter paper soaked in the appropriate aqueous concentrations of the antibiotic drugs of interest. The underside of the plate is numbered for each sample to be tested. The cultures are distributed evenly onto a sterile agar plate using a sterile cotton swab to form a uniform layer on the agar. The disks, impregnated with NPs, drug, or NP-drug conjugates are then placed on top of the agar. The cultures are allowed to grow in the previous conditions overnight (16-18 hours). For these experiments, an vitro biofilm model was that would mimic the infection in CF in which there is an alginate and mucin barrier to drug diffusion.

[4] = after magnetic treatment at 24 hours

| MIC80 of P. aeruginosa biofilms [1] | MIC ([2]; biofilm cells) | MIC ([2]; planktonic cells) | Structure (SMILES) | Sensitivity, Alginate barrier [3, 4] | Sensitivity, Both barriers [3, 4] | Sensitivity, Mucin barrier [3, 4] | Biofilm inhibition (number), Alginate barrier [3, 4] | Biofilm inhibition (number), Both barriers [3, 4] | Biofilm inhibition (number), Mucin barrier [3, 4] | Sensitivity, Alginate barrier ([3]; no magnetic treatment) | Sensitivity, Both barriers ([3]; no magnetic treatment) | Sensitivity, Mucin barrier ([3]; no magnetic treatment) | Biofilm inhibition (number), Alginate barrier ([3]; no magnetic treatment) | Biofilm inhibition (number), Both barriers ([3]; no magnetic treatment) | Biofilm inhibition (number), Mucin barrier ([3]; no magnetic treatment) |
| --- | --- | --- | --- | --- | --- | --- | --- | --- | --- | --- | --- | --- | --- | --- | --- |
| 1 µg/mL | – | – | O=C(O)c1cn(C2CC2)c2cc(N3CCNCC3)c(F)cc2c1=O [Cipro, Ciprofloxacin hydrochloride] | – | – | – | – | – | – | – | – | – | – | – | – |
| – | 50 µg/mL (≈ 107 µM) | 15 µg/mL (≈ 32.1 µM) | NC[C@H]1O[C@H](O[C@H]2[C@H](O)[C@@H](O[C@H]3O[C@H](CO)[C@@H](O)[C@H](N)[C@H]3O)[C@H](N)C[C@@H]2N)[C@H](N)C[C@@H]1O [Tobramycin, tobramycin] | S | S | S | 30 | 20 | 32 | S | S | S | 40 | 40 | 30 |

Source: patent US11969511B2, “Methods and compositions for antimicrobial treatment” (UNM Rainforest Innovations, priority 2015, dated 2024)
